Reference: patent publication US5811421A, “Naphthyl and dihydronaphthyl intermediates, compounds, compositions, and methods” (Eli Lilly and Company, priority 1996, dated 1998)
Counter-ions that a name gives are not always drawn.

Columns and labels:
[1] = tested on: ovariectomized rats (uterus); assay: Uterine weight in ovariectomized (OVX) rats, 4-day oral dosing; format: in vivo, female Sprague Dawley rats; conditions: for Uterine Weight (% increase vs. OVX): OVX rats
Experimental: (§1) In the examples illustrating the methods of the present invention, a post-menopausal model was used in which effects of different treatments upon circulating lipids were determined.
(§2) Seventy-five day old female Sprague Dawley rats (weight range of 200 to 225g) were obtained from Charles River Laboratories (Portage, MI). The animals were either bilaterally ovariectomized (OVX) or exposed to a Sham surgical procedure at Charles River Laboratories, and then shipped after one week. Upon arrival, they were housed in metal hanging cages in groups of 3 or 4 per cage and had ad libitum access to food (calcium content approximately 0.5%) and water for one week. Room temperature was maintained at 22.2°±1.7° C. with a minimum relative humidity of 40%. The photoperiod in the room was 12 hours light and 12 hours dark.
(§3) Dosing Regimen Tissue Collection. After a one week acclimation period (therefore, two weeks post-OVX) daily dosing with test compound was initiated. 17α-ethynyl estradiol or the test compound were given orally, unless otherwise stated, as a suspension in 1% carboxymethylcellulose or dissolved in 20% cyclodextrin. Animals were dosed daily for 4 days. Following the dosing regimen, animals were weighed and anesthetized with a ketamine: xylazine (2:1, V:V) mixture and a blood sample was collected by cardiac puncture. The animals were then sacrificed by asphyxiation with CO2, the uterus was removed through a midline incision, and a wet uterine weight was determined.
(§4) Data presented in Table 1 below show comparative results among ovariectomized rats, rats treated with 17α-ethynyl estradiol (EE2; an orally available form of estrogen), and rats treated with certain compounds of the present invention. […] This uterine response to estrogen is well recognized in the art.
(§5) The data presented in the Tables 1 below reflects the response of 5 to 6 rats per treatment.

[2] = tested on: proximal tibiae metaphysis (bone mineral density) of ovariectomized rats; assay: Osteoporosis Test Procedure: protection against bone loss in ovariectomized rats, 35 days; format: in vivo; conditions: oral; for Tibia BMD pQCT (% protection): OVX rats
Source text: Seventy-five day old female Sprague Dawley rats (weight range of 200 to 225g) were obtained from Charles River Laboratories (Portage, MI). The animals were either bilaterally ovariectomized (OVX) or exposed to a Sham surgical procedure at Charles River Laboratories, and then shipped after one week. Upon arrival, they were housed in metal hanging cages in groups of 3 or 4 per cage and had ad libitum access to food (calcium content approximately 0.5%) and water for one week. Room temperature was maintained at 22.2°±1.7° C. with a minimum relative humidity of 40%. The photoperiod in the room was 12 hours light and 12 hours dark. Following the General Preparation Procedure, infra, the rats were treated daily for 35 days (6 rats per treatment group) and sacrificed by carbon dioxide asphyxiation on the 36th day. The 35 day time period was sufficient to allow maximal reduction in bone density, measured as described herein. At the time of sacrifice, the uteri were removed, dissected free of extraneous tissue, and the fluid contents were expelled before determination of wet weight in order to confirm estrogen deficiency associated with complete ovariectomy. […] The uteri were then placed in 10% neutral buffered formalin to allow for subsequent histological analysis. The right femurs were excised and digitilized x-rays generated and analyzed by an image analysis program (NIH image) at the distal metaphysis. The proximal aspect of the tibiae from these animals were also scanned by quantitative computed tomography. In accordance with the above procedures, compounds of the present invention and ethynyl estradiol (EE2) in 20% hydroxypropyl β-cyclodextrin were orally administered to test animals. Proximal tibiae metaphysis data presented in Table 2 are the results of formula I compound treatments compared to intact and ovariectomized test animals. Results are reported as percent protection against bone loss which was calculated for individual animals by the following formula: % protection=(BMDtest BMDovx)/(BMDsham -BMDovx)×100.

[3] = tested on: Uterine Eosinophil Peroxidase (EPO); assay: Uterine Eosinophil Peroxidase (EPO) Assay / eosinophil infiltration into the uterus of ovariectomized rats; format: in vivo, female Sprague Dawley rats; design: Uterine EPO (V. max): unit not given here; conditions: for Uterine EPO (V. max): OVX rats, oral
Experimental: as §1, §2, §3
Uterine Eosinophil Peroxidase (EPO) Assay. Uteri were kept at 4° C. until time of enzymatic analysis. The uteri were then homogenized in 50 volumes of 50 mM Tris buffer (pH-8.0) containing 0.005% Triton X-100. Upon addition of 0.01% hydrogen peroxide and 10 mM O-phenylenediamine (final concentrations) in Tris buffer, increase in absorbance was monitored for one minute at 450 nm. The presence of eosonophils in the uterus is an indication of estrogenic activity of a compound. The maximal velocity of a 15 second interval was determined over the initial, linear portion of the reaction curve.
As is expressed in the below data, estrogenicity also was assessed by evaluating the adverse response of eosinophil infiltration into the uterus.
as §5

serum cholesterol = assay: Serum cholesterol in ovariectomized rats, 4-day oral dosing; format: in vivo, female Sprague Dawley rats; conditions: for Serum Cholesterol (% decrease vs. OVX): OVX rats
Experimental: as §1, §2, §3
Cholesterol Analysis. Blood samples were allowed to clot at room temperature for 2 hours, and serum was obtained following centrifugation for 10 minutes at 3000 rpm. Serum cholesterol was determined using a Boehringer Mannheim Diagnostics high performance cholesterol assay. Briefly the cholesterol was oxidized to cholest-4-en-3-one and hydrogen peroxide. The hydrogen peroxide was then reacted with phenol and 4-amino-phenazone in the presence of peroxidase to produce a p-quinone imine dye, which was read spectrophotemetrically at 500 nm. Cholesterol concentration was then calculated against a standard curve. The entire assay was automated using a Biomek Automated Workstation.
as §4, §5

[4] = tested on: MCF-7 breast adenocarcinoma cells; assay: MCF-7 Proliferation Assay; format: cell-based; conditions: Homo sapiens, MCF7; MCF-7 cells, tritiated thymidine incorporation, 48 hours
Experimental: MCF-7 Proliferation Assay MCF-7 breast adenocarcinoma cells (ATCC HTB 22) were maintained in MEM (minimal essential medium, phenol red- free, Sigma, St. Louis, Mo.) supplimented with 10% fetal bovine serum (FBS) (V/V), L-glutamine (2 mM), sodium pyruvate (1 mM), HEPES {(N-[2-hydroxyethyl]piperazine-N'-[2-ethanesulfonic acid]10 mM}, non-essential amino acids and bovine insulin (1 ug/mL) (maintenance medium). Ten days prior to assay, MCF-7 cells were switched to maintenance medium supplemented with 10% dextran coated charcoal stripped fetal bovine serum (DCC-FBS) assay medium) in place of 10% FBS to deplete internal stores of steroids. MCF-7 cells were removed from maintenance flasks using cell dissociation medium (Ca++/Mg++free HBSS (phenol red-free) supplemented with 10 mM HEPES and 2 mM EDTA). Cells were washed twice with assay medium and adjusted to 80,000 cells/mL. Approximately 100 μL (8,000 cells) were added to flat-bottom microculture wells (Costar 3596) and incubated at 37° C. in a 5% CO2 humidified incubator for 48 hours to allow for cell adherence and equilibration after transfer. Serial dilutions of drugs or DMSO as a diluent control were prepared in assay medium and 50 μL transferred to triplicate microcultures followed by 50 μL assay medium for […]. After an additional 48 hours at 37° C. in a 5% CO2 humidified incubator, microcultures were pulsed with tritiated thymidine (1 uCi/well) for 4 hours. Cultures were terminated by freezing at -70° C. for 24 hours followed by thawing and harvesting of microcultures using a Skatron Semiautomatic Cell Harvester. Samples were counted by liquid scintillation using a Wallac BetaPlace β counter. Results in Table 4 below show the IC50 for certain compounds of the present invention.

[5] = 0.1 mg/kg daily for 35 days, values marked * (two tailed Student's T Test)

Row | Compound | Uterine weight (in words) ([1]; 0.1 mg/kg/day) | Uterine Weight (% increase vs. OVX) ([1]; 0.1 mg/kg daily for 4 days) [%] | Tibia BMD pQCT (% protection) [2, 5] [%] | prevention of bone loss (in words) ([2]; ovariectomized rats, 35 days) | Uterine EPO (V. max) ([3]; 0.1 mg/kg daily for 4 days) | eosinophil infiltration into the uterus (in words) ([3]; stromal layer of ovariectomized rats) | Serum cholesterol (in words) (serum cholesterol; 0.1 mg/kg/day) | Serum Cholesterol (% decrease vs. OVX) (serum cholesterol; 0.1 mg/kg daily for 4 days) [%] | Uterine Weight (% increase vs. OVX) ([1]; 1.0 mg/kg daily for 4 days) [%] | Uterine Weight (% increase vs. OVX) ([1]; 10.0 mg/kg daily for 4 days) [%] | Uterine EPO (V. max) ([3]; 1.0 mg/kg daily for 4 days) | Uterine EPO (V. max) ([3]; 10.0 mg/kg daily for 4 days) | Serum Cholesterol (% decrease vs. OVX) (serum cholesterol; 1.0 mg/kg daily for 4 days) [%] | Serum Cholesterol (% decrease vs. OVX) (serum cholesterol; 10.0 mg/kg daily for 4 days) [%] | IC50 [4] [nM] | Tibia BMD pQCT (% protection) ([2]; 0.01 mg/kg daily for 35 days) [%] | Tibia BMD pQCT (% protection) ([2]; 1.0 mg/kg daily for 35 days) [%] | Tibia BMD pQCT (% protection) ([2]; 3.0 mg/kg daily for 35 days, value marked * (two tailed Student's T Test)) [%]
1 | C#C[C@]1(O)CC[C@H]2[C@@H]3CCc4cc(O)ccc4[C@H]3CC[C@@]21C [EE2, 17α-ethynyl estradiol, reference compound] | uterine weight was substantially greater than the uterine weight of ovariectomized test animals | 86.3 | 60.9 | prevented this loss | 116.4 | substantial, expected increase in eosinophil infiltration | caused a decrease in serum cholesterol | 81.4 |  |  |  |  |  |  |  |  |  | 
2 | CCc1ccc2cc(O)ccc2c1Cc1ccc(OCCN2CCCCC2)cc1 [Example 1, [2-Ethyl-6-hydroxynaphthalen-1-yl][4-[2-(1-piperdinyl)ethoxy]phenyl]methanehydrochloride] |  | -3.3 |  |  | 6.6 |  |  | 20.3 | 3.0 | 60.2 | 12.0 | 12.0 | 23.1 | 38.6 | 10 |  |  | 
3 | Oc1ccc2c(Cc3ccc(OCCN4CCCCC4)cc3)c([C@H]3CC[C@H](O)CC3)ccc2c1 [Example 2, hydrochloride] |  | 32.0 |  |  | 4.8 |  |  | 57.8 | 17.1 | 6.7 | 4.8 | 3.6 | 71.8 | 34.9 | 1 |  |  | 
4 | COc1ccc2c(c1)CCC(C1CCCCC1)=C2C(=O)c1ccc(OCCN2CCCCC2)cc1 [Example 4, [3,4-Dihydro-2-cyclohexyl-6-methoxynaphthalen-1-yl][4-[2-(1-piperdinyl)ethoxy]phenyl]methanone] |  | 32.0 |  |  | 2.1 |  |  | 65.5 | 30.7 | 24.2 | 8.1 | 10.6 | 56.6 | 58.3 |  |  |  | 
5 | COc1ccc2c(Cc3ccc(OCCN4CCCCC4)cc3)c(C3CCCCC3)ccc2c1 [Example 5, [2-Cyclohexyl-6-methoxynaphthalen-1-yl][4-[2-(1-piperdinyl)ethoxy]phenyl]methane] |  | 21.2 |  |  | 21.2 |  |  | 77.6 | 10.4 | 6.4 | 4.2 | 5.3 | 76.3 | 65.8 | 10 |  |  | 
6 | Oc1ccc2c(Cc3ccc(OCCN4CCCCC4)cc3)c(C3CCCCC3)ccc2c1 [Example 6, [2-Cyclohexyl-6-hydroxynaphthalen-1-yl][4-[2-(1-piperdinyl)ethoxy]phenyl]methane hydrochloride] |  | 65.7 | 52.6 |  | 17.7 |  |  | 57.4 | 22.8 | 22.0 | 4.2 | 4.5 | 46.8 | 63.9 | 0.6 | 23.1 | 30.1 | 59.6
